Test results reported in PMC10819888, “Benzimidazole-Based Derivatives as Apoptotic Antiproliferative Agents: Design, Synthesis, Docking, and Mechanistic Studies” (Molecules, 2024).
Like-named read-outs stand apart in the source and are kept apart here.

Key:
EGFR = EGFR (Homo sapiens, UniProt P00533); experiment: EGFR inhibitory assay
SF-268 = experiment: NCI-60 five-dose assay; format: cell-based, human; conditions: SF-268 (CNS Cancer), 48 h; for GI50 / CC50: Homo sapiens; for GI50: read-out: GI50 Conc. per Cell Line; for CC50: read-out: LC50 (the source's name)
UACC-257 = experiment: NCI-60 five-dose assay; format: cell-based, human; conditions: UACC-257 (Melanoma), 48 h; for GI50 / CC50: Homo sapiens; for GI50: read-out: GI50 Conc. per Cell Line; for CC50: read-out: LC50 (the source's name)
NCI-H226 = experiment: NCI-60 five-dose assay; format: cell-based, human; conditions: NCI-H226 (Non-Small Cell Lung Cancer), 48 h; for GI50 / CC50: Homo sapiens; for GI50: read-out: GI50 Conc. per Cell Line; for CC50: read-out: LC50 (the source's name)
SN12C = experiment: NCI-60 five-dose assay; format: cell-based, human; conditions: SN12C (Renal Cancer), 48 h; for GI50 / CC50: Homo sapiens; for GI50: read-out: GI50 Conc. per Cell Line; for CC50: read-out: LC50 (the source's name)
OVCAR-8 = experiment: NCI-60 five-dose assay; format: cell-based, human; conditions: OVCAR-8 (Ovarian Cancer), 48 h; for GI50 / CC50: Homo sapiens; for GI50: read-out: GI50 Conc. per Cell Line; for CC50: read-out: LC50 (the source's name)
SNB-19 = experiment: NCI-60 five-dose assay; format: cell-based, human; conditions: SNB-19 (CNS Cancer), 48 h; for GI50 / CC50: Homo sapiens; for GI50: read-out: GI50 Conc. per Cell Line; for CC50: read-out: LC50 (the source's name)
LOX IMVI = experiment: NCI-60 five-dose assay; format: cell-based, human; conditions: LOX IMVI (Melanoma), 48 h; for GI50 / CC50: Homo sapiens; for GI50: read-out: GI50 Conc. per Cell Line; for CC50: read-out: LC50 (the source's name)
T-47D = experiment: NCI-60 five-dose assay; format: cell-based, human; conditions: T-47D (Breast Cancer), 48 h; for GI50 / CC50: Homo sapiens, T47D; for GI50: read-out: GI50 Conc. per Cell Line; for CC50: read-out: LC50 (the source's name)
KM12 = experiment: NCI-60 five-dose assay; format: cell-based, human; conditions: KM12 (Colon Cancer), 48 h; for GI50 / CC50: Homo sapiens; for GI50: read-out: GI50 Conc. per Cell Line; for CC50: read-out: LC50 (the source's name)
MOLT-4 = experiment: NCI-60 five-dose assay; format: cell-based, human; conditions: MOLT-4 (Leukemia), 48 h; for GI50 / CC50: Homo sapiens; for GI50: read-out: GI50 Conc. per Cell Line; for CC50: read-out: LC50 (the source's name)
OVCAR-5 = experiment: NCI-60 five-dose assay; format: cell-based, human; conditions: OVCAR-5 (Ovarian Cancer), 48 h; for GI50 / CC50: Homo sapiens; for GI50: read-out: GI50 Conc. per Cell Line; for CC50: read-out: LC50 (the source's name)
Melanoma subpanel = experiment: NCI-60 five-dose assay, subpanel; format: cell-based, human; conditions: for GI50: Homo sapiens, Melanoma, average sensitivity of all subpanel cell lines, read-out: GI50 Subpanel MID b; for GI50 Selectivity Ratio (MID a/MID b): Melanoma subpanel
M14 = experiment: NCI-60 five-dose assay; format: cell-based, human; conditions: M14 (Melanoma), 48 h; for GI50 / CC50: Homo sapiens; for GI50: read-out: GI50 Conc. per Cell Line; for CC50: read-out: LC50 (the source's name)
K-562 = experiment: NCI-60 five-dose assay; format: cell-based, human; conditions: K-562 (Leukemia), 48 h; for GI50 / CC50: Homo sapiens, K562; for GI50: read-out: GI50 Conc. per Cell Line; for CC50: read-out: LC50 (the source's name)
Breast Cancer subpanel = experiment: NCI-60 five-dose assay, subpanel; format: cell-based, human; conditions: for GI50 Selectivity Ratio (MID a/MID b): Breast Cancer subpanel; for GI50: Homo sapiens, Breast Cancer, average sensitivity of all subpanel cell lines, read-out: GI50 Subpanel MID b
EKVX = experiment: NCI-60 five-dose assay; format: cell-based, human; conditions: EKVX (Non-Small Cell Lung Cancer), 48 h; for GI50 / CC50: Homo sapiens; for GI50: read-out: GI50 Conc. per Cell Line; for CC50: read-out: LC50 (the source's name)
[1] = test system: full panel of 60 human tumor cell lines; experiment: NCI-60 five-dose assay, full panel; format: cell-based
MALME-3M = experiment: NCI-60 five-dose assay; format: cell-based, human; conditions: MALME-3M (Melanoma), 48 h; for GI50: read-out: GI50 Conc. per Cell Line
Prostate Cancer subpanel = experiment: NCI-60 five-dose assay, subpanel; format: cell-based, human; conditions: for GI50: Homo sapiens, Prostate Cancer, average sensitivity of all subpanel cell lines, read-out: GI50 Subpanel MID b; for GI50 Selectivity Ratio (MID a/MID b): Prostate Cancer subpanel
UACC-62 = experiment: NCI-60 five-dose assay; format: cell-based, human; conditions: UACC-62 (Melanoma), 48 h; for GI50 / CC50: Homo sapiens; for GI50: read-out: GI50 Conc. per Cell Line; for CC50: read-out: LC50 (the source's name)
RXF 393 = experiment: NCI-60 five-dose assay; format: cell-based, human; conditions: RXF 393 (Renal Cancer), 48 h; for GI50 / CC50: Homo sapiens; for GI50: read-out: GI50 Conc. per Cell Line; for CC50: read-out: LC50 (the source's name)
HCC-2998 = experiment: NCI-60 five-dose assay; format: cell-based, human; conditions: HCC-2998 (Colon Cancer), 48 h; for GI50 / CC50: Homo sapiens; for GI50: read-out: GI50 Conc. per Cell Line; for CC50: read-out: LC50 (the source's name)
COLO 205 = experiment: NCI-60 five-dose assay; format: cell-based, human; conditions: COLO 205 (Colon Cancer), 48 h; for GI50: read-out: GI50 Conc. per Cell Line
ACHN = experiment: NCI-60 five-dose assay; format: cell-based, human; conditions: ACHN (Renal Cancer), 48 h; for GI50 / CC50: Homo sapiens; for GI50: read-out: GI50 Conc. per Cell Line; for CC50: read-out: LC50 (the source's name)
HOP-92 = experiment: NCI-60 five-dose assay; format: cell-based, human; conditions: HOP-92 (Non-Small Cell Lung Cancer), 48 h; for GI50: read-out: GI50 Conc. per Cell Line
[2] = average sensitivity of all cell lines, read-out: MID a (GI50)
[3] = five-dose assay, range over cell lines, read-out: GI50 range over the examined cell lines

Chain of EGFR (P00533 669-1210): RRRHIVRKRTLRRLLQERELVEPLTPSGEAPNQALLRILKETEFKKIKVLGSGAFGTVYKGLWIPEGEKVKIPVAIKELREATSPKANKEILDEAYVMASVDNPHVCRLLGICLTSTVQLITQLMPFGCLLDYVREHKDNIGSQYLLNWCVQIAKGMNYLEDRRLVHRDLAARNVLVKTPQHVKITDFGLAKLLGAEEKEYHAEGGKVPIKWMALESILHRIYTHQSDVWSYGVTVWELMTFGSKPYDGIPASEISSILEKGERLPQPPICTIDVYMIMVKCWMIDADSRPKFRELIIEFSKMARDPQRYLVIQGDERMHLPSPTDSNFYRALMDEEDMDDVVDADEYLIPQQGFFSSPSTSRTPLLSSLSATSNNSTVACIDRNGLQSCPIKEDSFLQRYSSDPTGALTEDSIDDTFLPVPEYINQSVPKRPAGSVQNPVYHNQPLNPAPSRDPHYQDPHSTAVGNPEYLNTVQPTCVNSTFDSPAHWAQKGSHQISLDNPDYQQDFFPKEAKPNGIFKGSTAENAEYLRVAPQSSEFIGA

**Q.** What does the source list for O=C(NN=Cc1ccc([N+](=O)[O-])cc1)c1ccc2[nH]c(-c3ccc(Cl)cc3)nc2c1 [Compound 4c, N′-(4-Nitrobenzylidene)-2-(4-chlorophenyl)-1H-benzimidazole-5-carbohydrazide]?
**A.** IC50 (EGFR): 0.11 ± 0.01 µM; GI50 (SF-268): 4.97 µM; CC50 (SF-268): > 100 µM; TGI (SF-268): 24.30 µM; GI50 (UACC-257): 3.37 µM; CC50 (UACC-257): > 100 µM; TGI (UACC-257): 15.40 µM; GI50 (NCI-H226): 5.03 µM; CC50 (NCI-H226): > 100 µM; TGI (NCI-H226): 31.20 µM; GI50 (SN12C): 3.14 µM; CC50 (SN12C): > 100 µM; TGI (SN12C): 18.10 µM; GI50 (OVCAR-8): 2.89 µM; CC50 (OVCAR-8): > 100 µM; TGI (OVCAR-8): 13.70 µM; GI50 (SNB-19): 7.48 µM; CC50 (SNB-19): > 100 µM; TGI (SNB-19): 32.40 µM; GI50 (LOX IMVI): 1.34 µM; CC50 (LOX IMVI): 7.74 µM; TGI (LOX IMVI): 3.22 µM; GI50 (T-47D): 2.29 µM; CC50 (T-47D): > 100 µM; TGI (T-47D): 7.21 µM; GI50 (KM12): 3.43 µM; CC50 (KM12): 82.6 µM; TGI (KM12): 13.00 µM; GI50 (MOLT-4): 0.421 µM; CC50 (MOLT-4): > 100 µM; TGI (MOLT-4): 3.85 µM; GI50 (OVCAR-5): 4.43 µM; CC50 (OVCAR-5): > 100 µM; TGI (OVCAR-5): 37.80 µM; GI50 (Melanoma subpanel): 2.87 µM; GI50 Selectivity Ratio (MID a/MID b) (Melanoma subpanel): 1.14; GI50 (M14): 2.73 µM; CC50 (M14): 67.1 µM; TGI (M14): 9.13 µM; GI50 (K-562): 0.499 µM; CC50 (K-562): 54.6 µM; TGI (K-562): 8.44 µM; GI50 Selectivity Ratio (MID a/MID b) (Breast Cancer subpanel): 1.31; GI50 (Breast Cancer subpanel): 2.5 µM; TGI (EKVX): 21.20 µM; GI50 (EKVX): 3.19 µM; CC50 (EKVX): > 100 µM; GI50 [1, 2]: 3.28 µM; GI50 [1, 3]: 0.42 to 8.99 µM; GI50 (MALME-3M; Homo sapiens): 1.48 µM; TGI (MALME-3M): 5.00 µM; GI50 (Prostate Cancer subpanel): 2.2 µM; GI50 Selectivity Ratio (MID a/MID b) (Prostate Cancer subpanel): 1.49; GI50 (UACC-62): 3.51 µM; CC50 (UACC-62): 52.2 µM; TGI (UACC-62): 14.90 µM; GI50 (RXF 393): 2.03 µM; CC50 (RXF 393): 34 µM; TGI (RXF 393): 7.07 µM; TGI (HCC-2998): 4.81 µM; GI50 (HCC-2998): 1.48 µM; CC50 (HCC-2998): 28.1 µM; TGI (COLO 205): 3.76 µM; GI50 (COLO 205; Homo sapiens): 1.46 µM; TGI (ACHN): 31.90 µM; GI50 (ACHN): 4.36 µM; CC50 (ACHN): > 100 µM; TGI (HOP-92): 7.52 µM; GI50 (HOP-92; Homo sapiens): 0.985 µM

**Q.** What does the source list for O=C(NN=Cc1ccc(Cl)cc1)c1ccc2[nH]c(-c3ccc(Cl)cc3)nc2c1 [Compound 4e, N′-(4-Chlorobenzylidene)-2-(4-chlorophenyl)-1H-benzimidazole-5-carbohydrazide]?
**A.** IC50 (EGFR): 0.09 ± 0.01 µM; GI50 (SF-268): 2.08 µM; CC50 (SF-268): 9.09 µM; TGI (SF-268): 4.35 µM; GI50 (UACC-257): 2.14 µM; CC50 (UACC-257): 11.6 µM; TGI (UACC-257): 4.72 µM; GI50 (NCI-H226): 1.77 µM; CC50 (NCI-H226): 6.86 µM; TGI (NCI-H226): 3.48 µM; GI50 (SN12C): 1.96 µM; CC50 (SN12C): 9.26 µM; TGI (SN12C): 4.26 µM; GI50 (OVCAR-8): 2.11 µM; CC50 (OVCAR-8): 16.5 µM; TGI (OVCAR-8): 4.74 µM; GI50 (SNB-19): 2.34 µM; CC50 (SNB-19): 13.3 µM; TGI (SNB-19): 5.06 µM; GI50 (LOX IMVI): 1.57 µM; CC50 (LOX IMVI): 5.5 µM; TGI (LOX IMVI): 2.94 µM; GI50 (T-47D): 1.79 µM; CC50 (T-47D): 8.21 µM; TGI (T-47D): 3.83 µM; GI50 (KM12): 2.03 µM; CC50 (KM12): 9.8 µM; TGI (KM12): 4.46 µM; GI50 (MOLT-4): 1.55 µM; CC50 (MOLT-4): 28.2 µM; TGI (MOLT-4): 4.81 µM; GI50 (OVCAR-5): 1.85 µM; CC50 (OVCAR-5): 8.52 µM; TGI (OVCAR-5): 3.97 µM; GI50 (Melanoma subpanel): 1.77 µM; GI50 Selectivity Ratio (MID a/MID b) (Melanoma subpanel): 1.01; GI50 (M14): 1.65 µM; CC50 (M14): 8.96 µM; TGI (M14): 3.84 µM; GI50 (K-562): 0.969 µM; CC50 (K-562): 12.3 µM; TGI (K-562): 3.23 µM; GI50 Selectivity Ratio (MID a/MID b) (Breast Cancer subpanel): 0.79; GI50 (Breast Cancer subpanel): 2.27 µM; TGI (EKVX): 3.68 µM; GI50 (EKVX): 1.82 µM; CC50 (EKVX): 7.43 µM; GI50 [1, 2]: 1.79 µM; LC50 ([1]; five-dose assay, range over cell lines): 5.73 to 77.9 µM; GI50 [1, 3]: 0.97 to 4.93 µM; LC50 (MALME-3M; Homo sapiens): 6.41 µM; GI50 (MALME-3M; Homo sapiens): 1.55 µM; TGI (MALME-3M): 3.15 µM; GI50 (Prostate Cancer subpanel): 1.65 µM; GI50 Selectivity Ratio (MID a/MID b) (Prostate Cancer subpanel): 1.08; GI50 (UACC-62): 1.78 µM; CC50 (UACC-62): 6.49 µM; TGI (UACC-62): 3.40 µM; GI50 (RXF 393): 1.61 µM; CC50 (RXF 393): 6.64 µM; TGI (RXF 393): 3.27 µM; TGI (HCC-2998): 3.44 µM; GI50 (HCC-2998): 1.82 µM; CC50 (HCC-2998): 6.5 µM; TGI (COLO 205): 3.25 µM; GI50 (COLO 205; Homo sapiens): 1.55 µM; CC50 (COLO 205; Homo sapiens, read-out: LC50 (the source's name)): 8.82 µM; TGI (ACHN): 3.17 µM; GI50 (ACHN): 1.73 µM; CC50 (ACHN): 5.78 µM; TGI (HOP-92): 3.53 µM; LC50 (50% lethal concentration) (HOP-92; Homo sapiens): 7.47 µM; GI50 (HOP-92; Homo sapiens): 1.67 µM
